Assay results from article PMC7039006 (2020).
Each block holds one compound with its values, some of them ahead of it.

Tests used:
[1] = tested on: 5'-AGCA overhang on iM7 (DNA, i motif) AGCACCCCTTTCCC; test: fluorescence enhancement; conditions: 2 mM MgCl2; TAE pH 5; 1 μM DNA, 3 μM THIA
[2] = tested on: 5'-AGAA overhang on iM7 (DNA, i motif) AGAACCCCTTTCCC; test: fluorescence enhancement; conditions: 2 mM MgCl2; TAE pH 5; 1 μM DNA, 3 μM DSMB
[3] = tested on: 5'-AGGA overhang on iM9 (DNA, i motif) AGGACCCCCTTTCCCC; test: fluorescence enhancement; conditions: 2 mM MgCl2; TAE pH 5, 22°C; 1 μM DNA, 3 μM ThT
[4] = tested on: 5'-GGA overhang on iM7 (DNA, i motif) GGACCCCTTTCCC; test: fluorescence enhancement; conditions: 2 mM MgCl2; TAE pH 5, 22°C; 1 μM DNA, 3 μM ThT
[5] = tested on: 3'-GGGA on C4T3C5 (DNA, i motif) CCCCTTTCCCCCGGGA; test: fluorescence enhancement; conditions: 2 mM MgCl2; TAE pH 5, 22°C; 1 μM DNA, 3 μM ThT
[6] = tested on: 5'-AGGA overhang on iM7 (DNA, i motif) AGGACCCCTTTCCC; test: fluorescence enhancement; conditions: 2 mM MgCl2; TAE pH 5, 22°C; 1 μM DNA, 3 μM ThT
[7] = tested on: 3'-GGGA on C3T3C4 (DNA, i motif) CCCTTTCCCCGGGA; test: fluorescence enhancement; conditions: 2 mM MgCl2; TAE pH 5, 22°C; 1 μM DNA, 3 μM ThT
[8] = tested on: iM9 (C5T3C4) (DNA, i motif) CCCCCTTTCCCC; test: CD melting at 290 nm; conditions: 2 mM MgCl2; TAE pH 5; 50 μM DNA, 150 μM ThT; Tm stated unchanged
[9] = tested on: TiM7 (5'-TGGA-C4T3C3) (DNA, i motif) TGGACCCCTTTCCC; test: CD melting at 290 nm; conditions: 2 mM MgCl2; TAE pH 5; 50 μM DNA, 150 μM ThT
[10] = tested on: TiM9 (TGGAC5T3C4) (DNA, i motif) TGGACCCCCTTTCCCC; test: fluorescence titration; conditions: 2 mM MgCl2; TAE pH 5, 22°C; 3 μM ThT titrated with DNA
[11] = tested on: FNA-TiM9 (Th46/Th58 tetrahedron heterodimer tethered with TiM9) (DNA, other) TTCAGACGGAATGTGCTTCCCAAGTGTCGTTTGTATTGGCTCGCAT/TCAACTGGGTGATAAAACGACACTTGGGAATCTACTATGGCTCTTC/TATCACCCAGTTGACAGTGTAGCATGTAATAGATGCGAGCCAATAC/ACATTCCGTCTGAAACATTACATGCTACACGAGAAGAGCCATAGTATTTTTTTTATAAATAATTGGACCCCCTTTCCCC/TTCAGACTTAGGAATGTTGCTTCCCACGTAGTGTCGTGTTGGTATTGGACCCTCGCAT/TCAACTGCCTGGTGATAAAACACGACACTACGTGGGAATCTTACTATGGCGGCTCTTC/TTATCACCAGGCAGTTGACAGGTGTAGCAAGCTGTAATAGATGCGAGGGTCCAATACC/AACATTCCTAAGTCTGAAACATTACAGCTTGCTACACCGAGAAGAGCCGCCATAGTAATTTTTTAATATTTATAATGGACCCCCTTTCCCC; test: fluorescence enhancement; conditions: 2 mM MgCl2; TAE pH 5; 0.4 μM FNA, 0.4 μM ThT; over 20-fold fluorescence increase versus pH 8
[12] = tested on: TiM9 (TGGAC5T3C4) (DNA, i motif) TGGACCCCCTTTCCCC; test: CD melting at 290 nm; conditions: 2 mM MgCl2; TAE pH 5; 50 μM DNA, 150 μM ThT
[13] = tested on: TiM7 (5'-TGGA-C4T3C3) (DNA, i motif) TGGACCCCTTTCCC; test: fluorescence titration; conditions: 2 mM MgCl2; TAE pH 5, 22°C; 3 μM ThT titrated with DNA
[14] = tested on: iM7 (C4T3C3) (DNA, i motif) CCCCTTTCCC; test: CD melting at 290 nm; conditions: 2 mM MgCl2; TAE pH 5; 50 μM DNA, 150 μM ThT; Tm stated unchanged
[15] = tested on: 5'-GGA overhang on iM9 (DNA, i motif) GGACCCCCTTTCCCC; test: fluorescence enhancement; conditions: 2 mM MgCl2; TAE pH 5, 22°C; 1 μM DNA, 3 μM ThT

binding [1]: yes
Structure (SMILES): CCN1/C(=C/c2sc3ccccc3[n+]2CC)Sc2ccccc21

binding [2]: yes
Structure (SMILES): CN(C)c1ccc(/C=C/c2sc3ccccc3[n+]2C)cc1

binding [3]: yes
binding [4]: weak
binding [5]: yes
binding [6]: yes
binding [7]: yes
binding [8]: weak
binding [9]: yes
Kd [10]: ~ 5.7 μM
binding [11]: yes
binding [12]: yes
Kd [13]: ~ 3.9 μM
binding [14]: weak
binding [15]: weak
Structure (SMILES): Cc1ccc2c(c1)sc(-c1ccc(N(C)C)cc1)[n+]2C
